Source: ChEMBL document CHEMBL1208743, “Discovery of novel sphingosine kinase-1 inhibitors. Part 2” (Bioorg Med Chem Lett, 2010)

How the values were obtained:
[1] = Intrinsic clearance in rat liver microsome measured per mg of protein; format: ADME; conditions: liver microsomes
[2] = Intrinsic clearance in human liver microsome measured per mg of protein; format: ADME; conditions: liver microsomes
[3] = Distribution coefficient, log D of the compound; format: physicochemical; conditions: octanol/water
[4] = AUC in rat at 1 mg/kg, iv; format: ADME, organism-based; set-up: dose 1 mg/kg, route intravenous; conditions: plasma
[5] = Half life in rat at 3 mg/kg, po; format: ADME, organism-based; set-up: dose 3 mg/kg, route oral; conditions: in vivo
[6] = Clearance in rat at 1 mg/kg, iv; format: ADME, organism-based; set-up: dose 1 mg/kg, route intravenous; conditions: in vivo
[7] = Half life in rat at 1 mg/kg, iv; format: ADME, organism-based; set-up: dose 1 mg/kg, route intravenous; conditions: in vivo
[8] = Oral bioavailability in rat at 3 mg/kg; format: ADME, organism-based; conditions: in vivo
[9] = Volume of distribution at steady state in rat at 1 mg/kg, iv; format: ADME, organism-based; set-up: dose 1 mg/kg, route intravenous; conditions: in vivo, read-out: Vdss
[10] = Tmax in rat at 3 mg/kg, po; format: ADME, organism-based; set-up: dose 3 mg/kg, route oral; conditions: in vivo
[11] = AUC in rat at 3 mg/kg, po; format: ADME, organism-based; set-up: dose 3 mg/kg, route oral; conditions: plasma
[12] = Cmax in rat at 3 mg/kg, po; format: ADME, organism-based; set-up: dose 3 mg/kg, route oral; conditions: in vivo

microsomal CLint [1] | microsomal CLint [2] | logD [3] | AUC [4] | half-life [5] | clearance [6] | half-life [7] | bioavailability [8] | Vd [9] | Tmax [10] | AUC [11] | Cmax [12] | SMILES
60 µL/min/mg | 45 µL/min/mg | 3.7 | – | – | – | – | – | – | – | – | – | CCCCCCCc1nc(-c2ccc(CNC(=O)[C@H]3NCC[C@@H]3O)cc2)no1
49.5 µL/min/mg | 12 µL/min/mg | 2.9 | 439 ng·h/mL | 7.55 h | 37.1 mL/min/kg | 4.3 h | 17.6% | 5.55 L/kg | 0.33 h | 232 ng·h/mL | 82.5 ng/mL | C[C@H](NC(=O)[C@H]1NCC[C@@H]1O)c1ccc(-c2noc(CCC3CCCC3)n2)cc1
50.2 µL/min/mg | < 4.5 µL/min/mg | 3.6 | – | – | – | – | – | – | – | – | – | C[C@H](NC(=O)[C@H]1NCC[C@@H]1O)c1ccc(-c2noc(CCC3CCCCC3)n2)cc1
38.8 µL/min/mg | 10 µL/min/mg | 4.3 | 204 ng·h/mL | 1.64 h | 81.8 mL/min/kg | 1.64 h | 15.3% | 7.86 L/kg | 0.75 h | 94.8 ng·h/mL | 37.5 ng/mL | CC[C@H](NC(=O)[C@H]1NCC[C@@H]1O)c1ccc(-c2noc(CCC3CCCCC3)n2)cc1
